The record followed here is ChEMBL document CHEMBL5465560, “Selectivity Literature for EUbOPEN Chemogenomic Library” (2024).

Assay [1] has as its target T1, Testis-specific serine/threonine-protein kinase 1 (Homo sapiens) (UniProt Q9BXA7).
T1 sequence (whole entry): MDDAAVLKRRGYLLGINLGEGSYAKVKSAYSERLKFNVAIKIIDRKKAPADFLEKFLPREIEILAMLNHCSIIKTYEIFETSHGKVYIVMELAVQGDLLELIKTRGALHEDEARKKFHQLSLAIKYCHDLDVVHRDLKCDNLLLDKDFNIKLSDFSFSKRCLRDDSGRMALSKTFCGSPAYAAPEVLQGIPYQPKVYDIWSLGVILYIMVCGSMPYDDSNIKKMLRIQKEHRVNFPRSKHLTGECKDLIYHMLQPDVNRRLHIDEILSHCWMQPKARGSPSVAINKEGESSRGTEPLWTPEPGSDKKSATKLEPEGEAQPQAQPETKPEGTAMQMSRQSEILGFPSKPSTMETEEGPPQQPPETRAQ
The following applies: at 10 µM.

In assay [2] the target is Protein-tyrosine kinase 6 (Homo sapiens, UniProt Q13882). The experiment in a line: Selectivity interaction (KinomeScan (DiscoverX)) EUB0000655a PTK6. Particulars: at 10 µM.
The target of assay [3] is T2, SNF-related serine/threonine-protein kinase (Homo sapiens) (UniProt Q9NRH2).
T2 sequence (whole entry): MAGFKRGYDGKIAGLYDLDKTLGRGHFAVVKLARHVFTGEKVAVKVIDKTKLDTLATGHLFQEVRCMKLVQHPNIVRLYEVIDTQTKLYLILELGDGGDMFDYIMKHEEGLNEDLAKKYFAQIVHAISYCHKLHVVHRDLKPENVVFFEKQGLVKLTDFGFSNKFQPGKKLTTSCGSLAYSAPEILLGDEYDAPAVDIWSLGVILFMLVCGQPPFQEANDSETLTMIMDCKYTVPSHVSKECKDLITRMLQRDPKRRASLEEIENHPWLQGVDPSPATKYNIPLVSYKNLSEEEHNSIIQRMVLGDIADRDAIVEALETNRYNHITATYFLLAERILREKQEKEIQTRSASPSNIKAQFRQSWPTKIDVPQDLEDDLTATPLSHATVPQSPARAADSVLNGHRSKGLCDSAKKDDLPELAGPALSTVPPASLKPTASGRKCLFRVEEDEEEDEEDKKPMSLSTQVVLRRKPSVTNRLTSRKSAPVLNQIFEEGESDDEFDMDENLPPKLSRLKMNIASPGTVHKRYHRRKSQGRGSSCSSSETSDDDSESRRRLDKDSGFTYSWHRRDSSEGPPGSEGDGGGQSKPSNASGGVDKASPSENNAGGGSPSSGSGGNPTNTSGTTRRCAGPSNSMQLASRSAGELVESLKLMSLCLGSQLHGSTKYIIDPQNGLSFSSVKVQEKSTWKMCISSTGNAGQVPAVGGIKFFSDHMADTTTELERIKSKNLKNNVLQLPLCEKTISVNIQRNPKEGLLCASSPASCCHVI
The experiment in a line: Selectivity interaction (ActivX KiNativ screen (kinase selectivity in THP-1 cell lysates)) EUB0000639a SNRK. Type of assay: subcellular. The following applies: lysate.

Assay [4] deals with T3, Serine/threonine-protein kinase BRSK1 (Homo sapiens) (UniProt Q8TDC3).
T3 sequence (whole entry): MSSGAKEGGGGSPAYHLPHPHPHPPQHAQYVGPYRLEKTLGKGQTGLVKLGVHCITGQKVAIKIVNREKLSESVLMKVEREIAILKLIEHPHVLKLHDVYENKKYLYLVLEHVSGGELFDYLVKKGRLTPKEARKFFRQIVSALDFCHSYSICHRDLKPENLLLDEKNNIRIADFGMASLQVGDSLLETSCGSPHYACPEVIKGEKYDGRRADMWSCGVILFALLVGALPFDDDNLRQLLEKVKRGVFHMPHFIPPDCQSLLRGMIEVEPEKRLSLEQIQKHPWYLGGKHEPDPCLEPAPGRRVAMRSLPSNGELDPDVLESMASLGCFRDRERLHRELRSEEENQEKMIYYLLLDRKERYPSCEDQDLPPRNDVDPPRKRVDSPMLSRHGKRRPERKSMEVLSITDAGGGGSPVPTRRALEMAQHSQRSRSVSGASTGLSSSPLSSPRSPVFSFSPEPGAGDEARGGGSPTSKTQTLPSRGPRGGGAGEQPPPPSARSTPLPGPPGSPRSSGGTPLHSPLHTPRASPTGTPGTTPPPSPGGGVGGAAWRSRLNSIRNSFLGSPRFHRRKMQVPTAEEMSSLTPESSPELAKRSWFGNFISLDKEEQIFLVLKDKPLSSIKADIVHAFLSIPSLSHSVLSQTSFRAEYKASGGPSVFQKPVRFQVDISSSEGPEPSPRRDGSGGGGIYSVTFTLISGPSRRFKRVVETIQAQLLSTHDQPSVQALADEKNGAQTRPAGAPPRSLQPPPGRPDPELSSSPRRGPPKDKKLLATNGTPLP
Put plainly: Selectivity interaction (KinomeScan (DiscoverX)) EUB0000229b BRSK1. The following applies: at 10 µM.

The target in assay [5] is T4, Mitogen-activated protein kinase kinase kinase 12 (Homo sapiens) (UniProt Q12852).
T4 sequence (whole entry): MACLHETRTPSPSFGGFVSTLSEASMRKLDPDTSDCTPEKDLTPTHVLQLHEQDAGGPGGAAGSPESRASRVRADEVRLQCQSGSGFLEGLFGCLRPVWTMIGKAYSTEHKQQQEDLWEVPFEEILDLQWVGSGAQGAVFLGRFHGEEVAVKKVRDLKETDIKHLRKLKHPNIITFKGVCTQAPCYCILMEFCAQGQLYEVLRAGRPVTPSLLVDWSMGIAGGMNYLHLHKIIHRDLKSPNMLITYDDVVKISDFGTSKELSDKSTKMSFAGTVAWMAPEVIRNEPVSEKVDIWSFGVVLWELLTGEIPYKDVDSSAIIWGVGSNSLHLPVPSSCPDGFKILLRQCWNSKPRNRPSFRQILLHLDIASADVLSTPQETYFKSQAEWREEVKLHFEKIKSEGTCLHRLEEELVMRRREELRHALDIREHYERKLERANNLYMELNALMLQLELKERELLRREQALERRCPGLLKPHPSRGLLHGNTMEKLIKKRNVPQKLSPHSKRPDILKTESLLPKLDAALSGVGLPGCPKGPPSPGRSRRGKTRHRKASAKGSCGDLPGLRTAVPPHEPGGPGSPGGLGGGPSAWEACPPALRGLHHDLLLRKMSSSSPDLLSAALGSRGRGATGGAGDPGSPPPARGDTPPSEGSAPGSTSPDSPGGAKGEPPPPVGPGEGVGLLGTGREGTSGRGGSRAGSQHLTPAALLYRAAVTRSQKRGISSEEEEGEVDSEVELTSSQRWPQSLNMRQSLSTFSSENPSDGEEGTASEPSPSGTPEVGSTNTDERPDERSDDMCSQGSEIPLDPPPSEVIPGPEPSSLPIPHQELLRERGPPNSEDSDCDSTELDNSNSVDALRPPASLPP
Put plainly: Selectivity interaction (KinomeScan (DiscoverX)) EUB0000595a MAP3K12. Particulars: at 10 µM.

Protein-tyrosine kinase 6, sequence (Q13882 whole entry, looked up): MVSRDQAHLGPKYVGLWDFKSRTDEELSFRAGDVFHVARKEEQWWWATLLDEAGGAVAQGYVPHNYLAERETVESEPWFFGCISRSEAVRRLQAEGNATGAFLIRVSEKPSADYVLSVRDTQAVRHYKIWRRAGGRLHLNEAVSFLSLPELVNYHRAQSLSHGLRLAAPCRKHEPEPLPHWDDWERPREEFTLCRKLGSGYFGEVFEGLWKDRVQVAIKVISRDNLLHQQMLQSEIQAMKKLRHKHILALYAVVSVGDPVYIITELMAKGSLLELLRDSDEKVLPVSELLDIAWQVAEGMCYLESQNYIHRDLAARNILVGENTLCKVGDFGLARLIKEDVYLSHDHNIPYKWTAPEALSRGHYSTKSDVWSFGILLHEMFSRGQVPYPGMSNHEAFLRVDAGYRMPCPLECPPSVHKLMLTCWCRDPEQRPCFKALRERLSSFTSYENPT

Take `CCN(CC)CCCCNc1ncc2cc(-c3cc(OC)cc(OC)c3)c(NC(=O)NC(C)(C)C)nc2n1`: the % of control in assay [1] stood at 100%. Consider `CN(C)CCOc1ccc(-c2nc(-c3ccncc3)c(-c3ccc4c(c3)CC/C4=N\O)[nH]2)cc1`, for which the % of control in assay [2] is 82%.

With `CC[C@@H]1[C@H](F)C(=O)N[C@@H]1COc1nccc2cc(C(N)=O)c(OC)cc12` [ZIMLOVISERTIB], the % of inhibition is -4.2% in assay [3] (at 0.01 µM); 1.9% in assay [3] (at 0.04 µM); 21.5% in assay [3] (at 0.2 µM); 3.6% in assay [3] (at 1 µM); 23.9% in assay [3] (at 5 µM). Compound `COc1cc(N(C)c2ccnc3ccc(C(F)(F)F)cc23)cc(OC)c1OC` registered a % binding in assay [4] of 86%. The compound `COCC(=O)NC/C=C/c1ccc2ncnc(Nc3ccc(Oc4ccc(C)nc4)c(C)c3)c2c1` [CP-724714] came in with a % of control in assay [5] of 92%.
